Assay [1] deals with fluid percussion brain injury. In words: Lateral fluid percussion injury (FPI) model of traumatic brain injury. In kind it is in vivo. To be noted: rats. As to the method: Compound A was tested for efficacy in an animal model of traumatic brain injury. Specifically, Compound A was evaluated in the lateral fluid percussion injury (FPI) model developed by McIntosh (McIntosh T. K., et. al (1989), Neuroscience 28:233-244). This model replicates many of the pathological aspects found in humans who have sustained traumatic brain injury. Furthermore, the damage caused by the injury is sensitive to pharmacological intervention, and thus provides a robust method for preclinical efficacy testing. In this model, animals are subjected to a fluid percussion brain injury, and are then given Compound A shortly thereafter. At specific time points, animals are evaluated using outcome measures that assess cognitive and locomoter deficits that are consequences of the injury. In addition, following behavioral analysis, animals are sacrificed and their brains assessed with respect to a variety of histopathological parameters.
For these studies, experimental parameters are used that were previously developed by Dr. Tracy McIntosh, Director of the University of Pennsylvania Head Injury Center. In these studies, male rats (350-400 g) are used for injuries. All animals are injured at a moderate/severe injury level (2.5-3.0 atm) via a craniotomy positioned over the left parietal cortex centered between Bregma and Lambda. […] Following behavioral testing, these animals are sacrificed, and their brains are analyzed for tissue damage (cortical volume loss, and neuronal cell counts), and other histopathological readouts.
The ability of Compound A to restore cognitive deficits in spatial memory and learning is evaluated at 48 hrs post injury using the Morris watermaze paradigm (Smith D. H. et al. (1991), J. Neurotrauma 8(4): 259-269; Schmidt, R. H. et al. (1999), J. Neurotrauma 16(12): 1139-1147). […] In the learning paradigm, the animals are trained to find the platform, and the reduction in latency with increasing number of training sessions is recorded. […]

The test system of a further assay is TNFα. Kind of assay: Immunohistochemistry for inflammatory marker TNFα on contused spinal cord. In kind it is in vivo. To be noted: rats after contusion injury; 72 h post-injury, 1 mm caudal to epicenter. As to the method:
Compound A was tested in both the rat dorsal hemisection (Guth, L. et al. (1980), J. Neurosurgery 52: 73-86) and contusion models (Scheff, S. W. (2003), J. Neurotrauma 20: 179-193) for evaluation of efficacy. These models are widely used in the field of spinal cord injury and replicate many of the pathological aspects found in humans who have sustained a spinal cord injury. Rats were subjected to an experimental spinal cord injury at T8, and were given Compound A shortly thereafter. Behavioral tests to assess the locomotion deficits were performed after the lesion. At the end of the experiment, animals were sacrificed and the spinal cord was collected for histopathological analysis. […] Histological assessment of the tissue at the site of injury was also made in both the drug treated and untreated group. In particular, subsequent to the behavioral measurement, spinal cord tissue from each animal was obtained and serial transverse tissue sections were stained with either anti-neurofilament antibody or antibodies specific for the inflammatory markers, tumor necrosis factor alpha (TNFα) and for the inducible form of nitric oxide synthetase (iNOS), followed by incubation with Alexa Fluor®-conjugated secondary antibodies.
Histological assessment of the tissue at the site of injury was also made in both the drug treated and untreated group. […]

`CC(=O)Nc1ccc(C(=O)NC(C)(C)C)cc1` [Compound A, N-tert-butyl-4-acetamidobenzamide]: in assay [1] (Study Number 1, 20 mg/kg/BID i.p. 7 days, 75% PEG 200), the “effects on the other locomotor tests, beam balance and rotating pole (in words)” value is “limited”. In addition, in assay [1] (Study Number 1, 20 mg/kg/BID i.p. 7 days, 75% PEG 200, acute and long term), the “effects on the composite neuroscore (in words)” value is “robust acute and long term effects”. Besides, the “effects in acute or long term locomotor or cognitive tests (in words)” value in assay [1] (Study Number 2, 10 and 20 mg/kg/BID i.p. 5 days, 50% PEG 400 and 25% ethanol) is “No effects of the compound were observed”. For the same compound, the “inflammatory marker TNFα in the region of the corticospinal tract vs untreated control” value with TNFα is reported as “decreased”.

The values above are taken from patent US20040167226A1, “Methods for the treatment of pain and traumatic injury using benzamides and compositions containing the same” (priority 2002, published 2004).
